Results reported in article PMC10216478, “Development of a Non-Peptide Angiotensin II Type 1 Receptor Ligand by Structural Modification of Olmesartan as a Biased Agonist” (Biomedicines, 2023).

biological target: T1, AT1 Y292A receptor (Rattus norvegicus, UniProt P25095, Y292A); test: Competition binding study, 125I-[Sar1,Ile8]Ang II, AT1 Y292A receptor; settings: competition with 125I-[Sar1,Ile8]Ang II, n = 3, mean ± standard error, read-out: Binding affinity (Kd)
T1 construct: expressed in transfected cells; host or cells: COS7
T1 sequence (P25095 1-359 Y292A): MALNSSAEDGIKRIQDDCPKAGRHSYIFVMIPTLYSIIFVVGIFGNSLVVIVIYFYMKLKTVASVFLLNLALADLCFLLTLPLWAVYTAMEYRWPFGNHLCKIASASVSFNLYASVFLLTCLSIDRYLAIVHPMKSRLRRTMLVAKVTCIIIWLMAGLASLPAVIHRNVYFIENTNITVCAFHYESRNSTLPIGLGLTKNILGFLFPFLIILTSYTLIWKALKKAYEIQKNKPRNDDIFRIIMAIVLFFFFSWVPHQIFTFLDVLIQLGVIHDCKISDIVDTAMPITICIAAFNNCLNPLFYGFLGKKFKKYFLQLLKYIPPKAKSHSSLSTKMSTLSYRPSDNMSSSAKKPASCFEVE
Source text: We mutated four amino acids in transmembrane (TM) III, VI, and VII in the AT1 receptor (L112A, Q257A, Y292A, and N295A receptors). We determined the mutation sites of the AT1 receptor according to ARB, which produced olmesartan derivatives with different interactions and functions toward the AT1 receptor, as previously reported by Zhang et al., since the additional 4-hydroxybenzyl groups of R781253 and R794847 were predicted to extend to a sub-pocket on the bottom of the AT1 receptor ligand-binding pocket consisting of Leu^112 and Gln^257. In addition, since the biased ligand TRV027 induced changes near the NPxxY motif in TM domain 7 that are related to receptor activation, Tyr^292 and Asn^295 in the AT1 receptor were mutated.
The synthetic rat AT1 receptor gene, which was cloned in the shuttle expression vector pMT-2, was used for expression and mutagenesis, as described previously. COS7 cells (No. CRL-1651, ATCC, Manassas, VA, USA) were cultured in 10% fetal bovine serum (FBS) and penicillin- and streptomycin-supplemented Dulbecco’s modified Eagle’s essential medium (PS-DMEM) in 5% CO2 at 37 °C. In the experiments, cells were grown without a cell-growth supplement. To express the AT1 receptor protein, 10 µg of purified plasmid DNA per 10^7 cells was used in the transfection. Wild-type and mutated AT1 receptors were transiently transfected into cells using Lipofectamine 2000 liposomal reagent (Roche Applied Science, Penzberg, Germany). Cells were plated and grown and were 70–90% confluent at the time of transfection. We incubated plasmid DNA (10 µg)–lipid (10 µL) complexes for 5 min at room temperature and added and incubated the complexes with cells for 24 h. We then analyzed the parameters in transfected cells. Cell viability was >95% according to trypan blue exclusion analysis in the control experiments. Transfected cells that had been cultured for 48–72 h were harvested. Cell membranes were prepared using the nitrogen Parr bomb disruption or freeze–thaw methods.
The Kd (nM) values of receptor binding were determined with ^125I-[Sar^1, Ile^8]AngII-binding experiments under equilibrium conditions. Binding kinetics were determined following the methods described in the literature. We carried out binding by using ^125I-[Sar^1, Ile^8] AngII (2200 Ci/mmol) and an increasing concentration (10^−11–10^−5 M) of each unlabeled compound. Nonspecific binding of ^125I-[Sar^1, Ile^8] Ang II was determined in the presence of a high concentration (10^−6 M) of unlabeled [Sar^1, Ile^8]. Next, the incubation mixture was separated by vacuum filtration through Whatman GF/C glass filters (Disposable Filter Funnels Grade GF/C, GE Healthcare), and presoaked with 0.1% polyethylenimine. The filter was washed with 3 mL of ice-cold stop buffer (25 mM Tris–HCl, pH 7.4, 1 mM MgCl2). The radioactivity trapped on the filters was quantified using an automatic γ-counter. The percentage (%) of specific binding of ^125I-[Sar^1, Ile^8]Ang II was calculated using the following formula: 100 × (% total binding of ^125I-[Sar^1, Ile^8]Ang II—nonspecific binding of ^125I-[Sar^1, Ile^8]Ang II)/(% total binding of ^125I-[Sar^1, Ile^8]Ang II).

SMILES | Kd
CCCc1nc(C(C)(C)O)c(C(=O)O)n1Cc1ccc(-c2ccccc2-c2nnn[nH]2)cc1 [Olmesartan, olmesartan] | 47 ± 15 nM
CCCc1nc(C(C)(C)O)c(C(N)=O)n1Cc1ccc(-c2ccccc2-c2nnn[nH]2)cc1 [R239470] | 6.3 ± 3.8 nM
CCCc1nc(C(C)(C)O)c(C(=O)O)n1Cc1ccc(-c2cc(Cc3ccc(O)cc3)ccc2-c2nnn[nH]2)cc1 [R781253] | 95 ± 7 nM
CCCc1nc(C(C)(C)O)c(C(N)=O)n1Cc1ccc(-c2cc(Cc3ccc(O)cc3)ccc2-c2nnn[nH]2)cc1 [R794847] | 30 ± 8 nM
